Each compound was assayed against T1, SHP2 full-length protein (Homo sapiens, UniProt Q06124) (assay: SHP2 allosteric inhibition experiment (Homogeneous Full Length SHP-2 Assay Kit)). Details: full-length SHP2 0.06 nM with SHP-2 activating peptide; ten-point, 1 μM to 0.05 nM; read-out: IC50 Values of Compounds Inhibiting SHP2.
T1 construct: purchased BPS Bioscience #79330
T1 sequence (Q06124 1-593): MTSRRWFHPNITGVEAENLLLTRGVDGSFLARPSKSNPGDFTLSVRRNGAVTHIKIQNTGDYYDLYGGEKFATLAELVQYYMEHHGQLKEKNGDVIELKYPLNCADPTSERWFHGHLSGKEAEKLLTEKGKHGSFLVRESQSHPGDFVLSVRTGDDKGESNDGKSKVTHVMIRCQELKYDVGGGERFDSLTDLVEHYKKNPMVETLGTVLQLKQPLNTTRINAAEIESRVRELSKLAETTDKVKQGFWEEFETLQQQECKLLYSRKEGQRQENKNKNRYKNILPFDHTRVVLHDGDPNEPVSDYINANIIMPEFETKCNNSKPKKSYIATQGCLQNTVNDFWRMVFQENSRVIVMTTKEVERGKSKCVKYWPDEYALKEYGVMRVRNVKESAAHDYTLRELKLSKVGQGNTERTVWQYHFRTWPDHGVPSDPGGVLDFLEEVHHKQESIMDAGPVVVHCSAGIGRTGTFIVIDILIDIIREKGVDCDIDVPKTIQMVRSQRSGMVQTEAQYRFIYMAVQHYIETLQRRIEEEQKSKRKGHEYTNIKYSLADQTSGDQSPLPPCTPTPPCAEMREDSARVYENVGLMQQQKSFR
Type: biochemical

**Q.** With `Nc1nccc(-n2c(=O)[nH]c3nc(N4CCC5(CC4)Cc4ncccc4[C@H]5N)cnc3c2=O)c1Cl` [Compound 19, (S)-3-(2-amino-3-chloropyridine-4-yl)-7-(5-amino-5,7-dihydrospiro[cyclopenta[b]pyridine-6,4′-piperidine]-1′-yl)pteridine-2,4(1H,3H)-dione] as the compound, how does the IC50 read?
**A.** ≤ 10 nM

**Q.** Which IC50 does the source give for `C[C@@H]1OCC2(CCN(c3ncc(Sc4cccc(-c5cnccn5)c4Cl)cn3)CC2)[C@@H]1N` [Compound 116, (3S,4S)-8-(5-((2-chloro-3-(pyrazine-2-yl)phenyl)mercapto)pyrimidine-2-yl)-3-methyl-2-oxa-8-azaspiro[4.5]decane-4-amine] here?
**A.** ≤ 10 nM

**Q.** For `N[C@@H]1c2ccncc2CC12CCN(c1cnc3c(=O)n(-c4cccc(Cl)c4Cl)c(=O)[nH]c3n1)CC2` [Compound 15, (S)-7-(5-Amino-5,7-dihydrospiro [cyclopenta[c]pyridine-6,4′-piperidine]-1′-yl)-3-(2,3-dichlorophenyl)pteridine-2,4(1H,3H)-dione], which IC50 is on record?
**A.** 10 to 100 nM

**Q.** How did the IC50 turn out when `C[C@@H]1OCC2(CCN(c3cnc(Sc4cccc(Nc5cnccn5)c4Cl)nc3)CC2)[C@@H]1N` [Compound 109, (3S,4S)-8-(2-((2-chloro-3-(pyrazine-2-amino)phenyl)mercapto)pyrimidine-5-yl)-3-me thyl-2-oxa-8-azaspiro[4.5]decane-4-amine] was run?
**A.** 10 to 100 nM

**Q.** With `C[C@@H]1OCC2(CCN(c3cnc(Sc4cccc(-c5cncnc5)c4Cl)nc3)CC2)[C@@H]1N` [Compound 103, (3S,4S)-8-(2-((2-chloro-3-(pyrimidine-5-yl)phenyl)mercapto)pyrimidine-5-yl)-3-methyl-2-oxa-8-azaspiro[4.5]decane-4-amine] as the compound, how does the IC50 read?
**A.** ≤ 10 nM

**Q.** How did the IC50 turn out when `C[C@@H]1OCC2(CCN(c3ncc4nc(Sc5cccc(NC(=O)c6c(O)nc7n(c6=O)CCCC7)c5Cl)cnc4n3)CC2)[C@@H]1N` [Compound 88, N-(3-((2-((3S,4S)-4-amino-3-methyl-2-oxa-8-azaspiro[4.5]decane-8-yl)pteridine-6-yl)mercapto)-2-chlorophenyl)-2-hydroxy-4-oxo-6,7,8,9-tetrahydro-4H-pyridinyl[1,2-a]p yrimidine-3-carboxamide] was run?
**A.** ≤ 10 nM

**Q.** `C[C@@H]1OCC2(CCN(c3ccc4nc(Sc5cccc(NC(=O)c6c(O)nc7n(c6=O)CCCC7)c5Cl)cnc4n3)CC2)[C@@H]1N` [Compound 97, N-(3-((6-((3S,4S)-4-amino-3-methyl-2-oxa-8-azaspiro[4.5]decane-8-yl)pyridinyl[2,3-b]pyrazine-2-yl)mercapto)-2-chlorophenyl)-2-hydroxy-4-oxo-6,7,8,9-tetrahydro-4H-p yridinyl[1,2-a]pyrimidine-3-carboxamide] was tested. Which IC50 did it give?
**A.** ≤ 10 nM

**Q.** Which IC50 does the source give for `Nc1nccc(-n2c(=O)[nH]c3cc(N4CCC5(CC4)COCC5N)ccc3c2=O)c1Cl` (stereo in doubt) [Compound 3, (S)-3-(2-amino-3-chloropyridine-4-yl)-7-(4-amino-2-oxa-8-azaspiro[4.5]decane-8-yl)q uinazoline-2,4(1H,3H)-dione] here?
**A.** ≤ 10 nM

**Q.** Which IC50 does the source give for `NC1c2cccnc2CC12CCN(c1ccc3c(=O)n(-c4cccc(Cl)c4Cl)c(=O)[nH]c3c1)CC2` (stereo in doubt) [Compound 7, (S)-7-(5-Amino-5,7-dihydrospiro [cyclopenta[b]pyridine-6,4′-piperidine]-1′-yl)-3-(2,3-dichlorophenyl)quinazoline-2,4(1H,3H)-dione] here?
**A.** ≤ 10 nM

**Q.** `C[C@@H]1OCC2(CCN(c3ncc4nc(Sc5cccc(-c6ccn(C)n6)c5Cl)cnc4n3)CC2)[C@@H]1N` [Compound 64, (3S,4S)-8-(6-((2-chloro-3-(1-methyl-1H-pyrazole-3-yl)phenyl)mercapto)pteridine-2-y 1)-3-methyl-2-oxa-8-azaspiro[4.5]decane-4-amine] was tested. Which IC50 did it give?
**A.** ≤ 10 nM

**Q.** Which IC50 does the source give for `C[C@@H]1OCC2(CCN(c3ncc4nc(Sc5cccc(NC(=O)c6c(O)nc7n(c6=O)CCCC7)c5Cl)ccc4n3)CC2)[C@@H]1N` [Compound 96, N-(3-((2-((3S,4S)-4-amino-3-methyl-2-oxa-8-azaspiro[4.5]decane-8-yl)pyridinyl[3,2-d]pyrimidine-6-yl)mercapto)-2-chlorophenyl)-2-hydroxy-4-oxo-6,7,8,9-tetrahydro-4H-pyridinyl[1,2-a]pyrimidine-3-carboxamide] here?
**A.** ≤ 10 nM

**Q.** For `C[C@@H]1OCC2(CCN(c3nnc(Sc4cccc(-c5cnccn5)c4Cl)nn3)CC2)[C@@H]1N` [Compound 133, (3S,4S)-8-(3-((2-chloro-3-(pyrazine-2-yl)phenyl)mercapto)-tetrazine-6-yl)-3-methyl-2-oxa-8-azaspiro[4.5]decane-4-amine], which IC50 is on record?
**A.** ≤ 10 nM

**Q.** With `C[C@@H]1OCC2(CCN(c3cnc4c(=O)n(-c5ccnc(N)c5Cl)c(=O)[nH]c4n3)CC2)[C@@H]1N` [Compound 17, 3-(2-amino-3-chloropyridine-4-yl)-7-((3S,4S)-4-amino-3-methyl-2-oxa-8-azaspiro[4.5]decane-8-yl)pteridine-2,4(1H,3H)-dione] as the compound, how does the IC50 read?
**A.** ≤ 10 nM

**Q.** For `C[C@@H]1OCC2(CCN(c3ncc4nc(Sc5cccc(-c6ccn(C)n6)c5Cl)ccc4n3)CC2)[C@@H]1N` [Compound 90, (3S,4S)-8-(6-((2-chloro-3-(1-methyl-1H-pyrazole-3-yl)phenyl)mercapto)pyridinyl[3,2-b]pyrimidine-2-yl)-3-methyl-2-oxa-8-azaspiro[4.5]decane-4-amine], which IC50 is on record?
**A.** ≤ 10 nM

**Q.** With `C[C@@H]1OCC2(CCN(c3ccc4nc(Sc5cccc(Oc6ccn(C)n6)c5Cl)ncc4n3)CC2)[C@@H]1N` [Compound 95] as the compound, how does the IC50 read?
**A.** ≤ 10 nM

**Q.** How did the IC50 turn out when `C[C@@H]1OCC2(CCN(c3cnc4nc(Sc5cccc(-c6ccn(C)n6)c5Cl)ncc4n3)CC2)[C@@H]1N` [Compound 63, (3S,4S)-8-(2-((2-chloro-3-(1-methyl-1H-pyrazole-3-yl)phenyl)mercapto)pteridine-6-y 1)-3-methyl-2-oxa-8-azaspiro[4.5]decane-4-amine] was run?
**A.** ≤ 10 nM

**Q.** Which IC50 does the source give for “N-(3-((5-((3S,4S)-4-amino-3-methyl-2-oxa-8-azaspiro[4.5]decane-8-yl)-1,2,4-triazine-3-yl)mercapto)-2-chlorobenzene)-2-hydroxy-4-oxa-6,7,8,9-tetrahydro-4H-pyridinyl[1,2-a]pyrimidine-3-carboxamide [Compound 138]” here?
**A.** ≤ 10 nM

**Q.** `C[C@@H]1OCC2(CCN(c3ccc4c(=O)n(-c5cccc(Cl)c5Cl)c(=O)[nH]c4c3)CC2)C1N` (stereo in doubt) [Compound 1, 7-((3S,4S)-4-amino-3-methyl-2-oxa-8-azaspiro[4.5]decane-8-yl)-3-(2,3-dichlorophenyl)quinazoline-2,4(1H,3H)-dione] was tested. Which IC50 did it give?
**A.** ≤ 10 nM

**Q.** `CC(C)n1ccc(-c2cccc(Sc3ncc4nc(N5CCC6(CC5)CO[C@@H](C)[C@H]6N)cnc4n3)c2Cl)n1` [Compound 69, (3S,4S)-8-(2-((2-chloro-3-(1-isopropyl-1H-pyrazole-3-yl)phenyl)mercapto)pteridine-6-yl)-3-methyl-2-oxa-8-azaspiro[4.5]decane-4-amine] was tested. Which IC50 did it give?
**A.** ≤ 10 nM

**Q.** `C[C@@H]1OCC2(CCN(c3ncc(Sc4cccc(NC(=O)c5ccccn5)c4Cl)cn3)CC2)[C@@H]1N` [Compound 125, N-(3-((2-((3S,4S)-4-amino-3-methyl-2-oxa-8-azaspiro[4.5]decane-8-yl)pyrimidine-5-yl)mercapto)-2-chlorophenyl)pyridine-2-carboxamide] was tested. Which IC50 did it give?
**A.** ≤ 10 nM

**Q.** For `C[C@@H]1OCC2(CCN(c3ncc(Sc4cccc(Nc5cnccn5)c4Cl)cn3)CC2)[C@@H]1N` [Compound 121, (3S,4S)-8-(5-((2-chloro-3-(pyrazine-2-amino)phenyl)mercapto)pyrimidine-2-yl)-3-me thyl-2-oxa-8-azaspiro[4.5]decane-4-amine], which IC50 is on record?
**A.** ≤ 10 nM

— patent US20240270759A1, “Preparation of SHP2 phosphatase inhibitors and its applications” (Ya Therapeutics Inc, priority 2021, published 2024)
